Results on 29 molecules are retold here after patent US9283222B2 (priority 2006, dated 2016).

In general, Ki refers to the equilibrium dissociation constant of an inhibitor or competing ligand from its target.

The target of this assay is Recombinant Human Poly(ADP-Ribose) Polymerase (PARP), PARP-1 (Homo sapiens (Human), UniProt P09874). The conditions noted are these: read-out: PARP-1 (Ki); Table 1; text calls the values EC50s.
Sequence of Recombinant Human Poly(ADP-Ribose) Polymerase (PARP), PARP-1 (P09874 whole entry): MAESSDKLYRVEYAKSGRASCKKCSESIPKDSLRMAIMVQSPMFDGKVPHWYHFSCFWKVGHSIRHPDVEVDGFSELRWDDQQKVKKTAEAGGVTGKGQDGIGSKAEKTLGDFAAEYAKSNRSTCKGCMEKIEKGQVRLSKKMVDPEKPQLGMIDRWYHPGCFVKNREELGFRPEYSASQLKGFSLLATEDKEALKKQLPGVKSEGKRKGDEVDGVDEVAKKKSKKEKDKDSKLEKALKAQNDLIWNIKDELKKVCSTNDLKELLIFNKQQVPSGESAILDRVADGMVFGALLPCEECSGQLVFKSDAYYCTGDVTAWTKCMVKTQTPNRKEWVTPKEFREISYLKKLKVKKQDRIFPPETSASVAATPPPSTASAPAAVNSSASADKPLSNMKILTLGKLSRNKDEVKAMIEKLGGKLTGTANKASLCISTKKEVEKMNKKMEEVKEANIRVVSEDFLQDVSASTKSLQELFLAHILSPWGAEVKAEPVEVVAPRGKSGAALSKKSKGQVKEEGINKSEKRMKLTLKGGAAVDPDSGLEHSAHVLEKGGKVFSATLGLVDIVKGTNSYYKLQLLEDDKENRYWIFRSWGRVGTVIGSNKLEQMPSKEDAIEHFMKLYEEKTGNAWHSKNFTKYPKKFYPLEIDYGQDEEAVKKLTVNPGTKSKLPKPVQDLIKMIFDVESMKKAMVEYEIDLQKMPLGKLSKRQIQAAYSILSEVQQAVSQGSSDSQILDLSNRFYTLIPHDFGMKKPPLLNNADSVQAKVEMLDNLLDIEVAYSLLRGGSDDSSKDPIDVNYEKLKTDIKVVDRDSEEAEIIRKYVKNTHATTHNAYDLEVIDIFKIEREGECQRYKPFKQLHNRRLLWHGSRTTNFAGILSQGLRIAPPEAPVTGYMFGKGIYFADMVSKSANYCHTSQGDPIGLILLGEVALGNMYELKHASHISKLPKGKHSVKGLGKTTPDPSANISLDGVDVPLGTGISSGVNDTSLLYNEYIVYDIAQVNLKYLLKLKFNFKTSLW
As for `O=C(c1cc(Cc2n[nH]c(=O)c3c2NCCC3)ccc1F)N1CCCN(C(=O)[C@@H]2CSCN2)CC1` [Example 701, 8-[4-fluoro-3-({4-[(4R)-1,3-thiazolidin-4-ylcarbonyl]-1,4-diazepan-1-yl}carbonyl)benzyl]-2,3,4,6-tetrahydropyrido[2,3-d]pyridazin-5(1H)-one], the Ki amounted to 2.3 nM. Next, `O=C(c1cc[nH]n1)N1CCCN(C(=O)c2cc(Cc3n[nH]c(=O)c4c3NCCC4)ccc2F)CC1` [Example 702, 8-(4-fluoro-3-{[4-(1H-pyrazol-3-ylcarbonyl)-1,4-diazepan-1-yl]carbonyl}benzyl)-2,3,4,6-tetrahydropyrido[2,3-d]pyridazin-5(1H)-one]: 2.1 nM; `O=C(c1cscn1)N1CCCN(C(=O)c2cc(Cc3n[nH]c(=O)c4c3NCCC4)ccc2F)CC1` [Example 703, 8-(4-fluoro-3-{[4-(1,3-thiazol-4-ylcarbonyl)-1,4-diazepan-1-yl]carbonyl}benzyl)-2,3,4,6-tetrahydropyrido[2,3-d]pyridazin-5(1H)-one]: 2.3 nM; `O=C(c1cc[nH]n1)N1CCN(C(=O)c2cc(Cc3n[nH]c(=O)c4c3NCCC4)ccc2F)CC1` [Example 704, 8-(4-fluoro-3-{[4-(1H-pyrazol-3-ylcarbonyl)piperazin-1-yl]carbonyl}benzyl)-2,3,4,6-tetrahydropyrido[2,3-d]pyridazin-5(1H)-one]: 0.6 nM.

Take `O=C(c1cscn1)N1CCN(C(=O)c2cc(Cc3n[nH]c(=O)c4c3NCCC4)ccc2F)CC1` [Example 705, 8-(4-fluoro-3-{[4-(1,3-thiazol-4-ylcarbonyl)piperazin-1-yl]carbonyl}benzyl)-2,3,4,6-tetrahydropyrido[2,3-d]pyridazin-5(1H)-one]: the Ki worked out at 1.4 nM. Consider `CN(C(=O)c1cc(Cc2n[nH]c(=O)c3c2NCCC3)ccc1F)C1CCNCC1` [Example 706, 2-fluoro-N-methyl-5-[(5-oxo-1,2,3,4,5,6-hexahydropyrido[2,3-d]pyridazin-8-yl)methyl]-N-piperidin-4-ylbenzamide], for which the inhibition constant (Ki) came to 5 nM.

`O=C(NC1CCC(O)CC1)c1cc(Cc2n[nH]c(=O)c3c2NCCC3)ccc1F` (centres unmarked) [Example 709, 2-fluoro-N-(4-hydroxycyclohexyl)-5-[(5-oxo-1,2,3,4,5,6-hexahydropyrido[2,3-d]pyridazin-8-yl)methyl]benzamide]: the inhibition constant Ki turned out to be 53 nM. With `CN(C(=O)c1cc(Cc2n[nH]c(=O)c3c2NCCC3)ccc1F)C1CCN(C(=O)c2cccnc2)CC1` [Example 710, 2-fluoro-N-methyl-5-[(5-oxo-1,2,3,4,5,6-hexahydropyrido[2,3-d]pyridazin-8-yl)methyl]-N-[1-(pyridin-3-ylcarbonyl)piperidin-4-yl]benzamide], the Ki came to 7 nM. Next, `CCN(CCNC(=O)OC(C)(C)C)C(=O)c1cc(Cc2n[nH]c(=O)c3c2CCCC3)ccc1F` [Example 711, tert-butyl 2-(ethyl{2-fluoro-5-[(4-oxo-3,4,5,6,7,8-hexahydrophthalazin-1-yl)methyl]benzoyl}amino)ethylcarbamate]: 3 nM. Next, `CN(C(=O)c1cc(Cc2n[nH]c(=O)c3c2NCCC3)ccc1F)C1CCN(C(=O)c2ccncc2)CC1` [Example 712, 2-fluoro-N-(1-isonicotinoylpiperidin-4-yl)-N-methyl-5-[(5-oxo-1,2,3,4,5,6-hexahydropyrido[2,3-d]pyridazin-8-yl)methyl]benzamide]: 4 nM. The same measure for `O=C(NC1CCN(C(=O)c2ccc3[nH]cnc3c2)CC1)c1cc(Cc2n[nH]c(=O)c3c2NCCC3)ccc1F` [Example 713, N-[1-(1H-benzimidazol-5-ylcarbonyl)piperidin-4-yl]-2-fluoro-5-[(5-oxo-1,2,3,4,5,6-hexahydropyrido[2,3-d]pyridazin-8-yl)methyl]benzamide]: 1.8 nM; for `O=C(NCCN1CCCC1=O)c1cc(Cc2n[nH]c(=O)c3c2CCCC3)ccc1F` [Example 714, 2-fluoro-5-[(4-oxo-3,4,5,6,7,8-hexahydrophthalazin-1-yl)methyl]-N-[2-(2-oxopyrrolidin-1-yl)ethyl]benzamide]: 0.8 nM. On to `CN(C(=O)c1cc(Cc2n[nH]c(=O)c3c2NCCC3)ccc1F)C1CCN(C(=O)c2ccco2)CC1` [Example 715, 2-fluoro-N-[1-(2-furoyl)piperidin-4-yl]-N-methyl-5-[(5-oxo-1,2,3,4,5,6-hexahydropyrido[2,3-d]pyridazin-8-yl)methyl]benzamide], for which the inhibitory constant (Ki) was 4 nM.

`CN(C(=O)c1cc(Cc2n[nH]c(=O)c3c2NCCC3)ccc1F)C1CCN(C(=O)[C@@H]2CSCN2)CC1` [Example 716, 2-fluoro-N-methyl-5-[(5-oxo-1,2,3,4,5,6-hexahydropyrido[2,3-d]pyridazin-8-yl)methyl]-N-{1-[(4R)-1,3-thiazolidin-4-ylcarbonyl]piperidin-4-yl}benzamide]: the inhibition constant (Ki) was found to be 5 nM. The same measure for `CN(C(=O)c1cc(Cc2n[nH]c(=O)c3c2NCCC3)ccc1F)C1CCN(C(=O)c2cscn2)CC1` [Example 717, 2-fluoro-N-methyl-5-[(5-oxo-1,2,3,4,5,6-hexahydropyrido[2,3-d]pyridazin-8-yl)methyl]-N-[1-(1,3-thiazol-4-ylcarbonyl)piperidin-4-yl]benzamide]: 4 nM; for `CN(C(=O)c1cc(Cc2n[nH]c(=O)c3c2NCCC3)ccc1F)C1CCN(C(=O)c2cn[nH]c2)CC1` [Example 718, 2-fluoro-N-methyl-5-[(5-oxo-1,2,3,4,5,6-hexahydropyrido[2,3-d]pyridazin-8-yl)methyl]-N-[1-(1H-pyrazol-4-ylcarbonyl)piperidin-4-yl]benzamide]: 2.6 nM; for `CCN(CCN)C(=O)c1cc(Cc2n[nH]c(=O)c3c2CCCC3)ccc1F` [Example 719, N-(2-aminoethyl)-N-ethyl-2-fluoro-5-[(4-oxo-3,4,5,6,7,8-hexahydrophthalazin-1-yl)methyl]benzamide]: 7 nM. The same measure for `O=C(c1ccncc1)N1CCN(C(=O)c2cc(Cc3n[nH]c(=O)c4c3CCCC4)ccc2F)CC1` [Example 720, 4-{4-fluoro-3-[(4-isonicotinoylpiperazin-1-yl)carbonyl]benzyl}-5,6,7,8-tetrahydrophthalazin-1(2H)-one]: 1.4 nM; for `CN(C(=O)c1cc(Cc2n[nH]c(=O)c3c2NCCC3)ccc1F)C1CCN(C(=O)c2ccccn2)CC1` [Example 721, 2-fluoro-N-methyl-5-[(5-oxo-1,2,3,4,5,6-hexahydropyrido[2,3-d]pyridazin-8-yl)methyl]-N-[1-(pyridin-2-ylcarbonyl)piperidin-4-yl]benzamide]: 3 nM; for `O=C(c1cccnc1)N1CCN(C(=O)c2cc(Cc3n[nH]c(=O)c4c3CCCC4)ccc2F)CC1` [Example 722, 4-(4-fluoro-3-{[4-(pyridin-3-ylcarbonyl)piperazin-1-yl]carbonyl}benzyl)-5,6,7,8-tetrahydrophthalazin-1(2H)-one]: 1.2 nM.

Regarding `O=C(c1cnc(O)c(Cl)c1)N1CCN(C(=O)c2cc(Cc3n[nH]c(=O)c4c3CCCC4)ccc2F)CC1` [Example 723, 4-[3-({4-[(5-chloro-6-hydroxypyridin-3-yl)carbonyl]piperazin-1-yl}carbonyl)-4-fluorobenzyl]-5,6,7,8-tetrahydrophthalazin-1(2H)-one], the Ki came out at 1.3 nM. The same measure for `O=C(NC1CCN(C(=O)c2cccnc2)CC1)c1cc(Cc2n[nH]c(=O)c3c2NCCC3)ccc1F` [Example 724, 2-fluoro-5-[(5-oxo-1,2,3,4,5,6-hexahydropyrido[2,3-d]pyridazin-8-yl)methyl]-N-[1-(pyridin-3-ylcarbonyl)piperidin-4-yl]benzamide]: 7 nM; for `CC(C)n1c(C(F)(F)F)nc2cc(C(=O)N3CCN(C(=O)c4cc(Cc5n[nH]c(=O)c6c5CCCC6)ccc4F)CC3)ccc21` [Example 725, 4-{4-fluoro-3-[(4-{[1-isopropyl-2-(trifluoromethyl)-1H-benzimidazol-5-yl]carbonyl}piperazin-1-yl)carbonyl]benzyl}-5,6,7,8-tetrahydrophthalazin-1(2H)-one]: 5 nM; for `O=C(NC1CCN(C(=O)c2ccco2)CC1)c1cc(Cc2n[nH]c(=O)c3c2NCCC3)ccc1F` [Example 726, 2-fluoro-N-[1-(2-furoyl)piperidin-4-yl]-5-[(5-oxo-1,2,3,4,5,6-hexahydropyrido[2,3-d]pyridazin-8-yl)methyl]benzamide]: 4 nM.

Turning to `O=C(c1cc(Cc2n[nH]c(=O)c3c2CCCC3)ccc1F)N1CCN(C(=O)[C@@H]2CSCN2)CC1` [Example 727, 4-[4-fluoro-3-({4-[(4R)-1,3-thiazolidin-4-ylcarbonyl]piperazin-1-yl}carbonyl)benzyl]-5,6,7,8-tetrahydrophthalazin-1(2H)-one], the inhibitory constant (Ki) came out at 1.4 nM. The same measure for `CC(C)n1nnc2cc(C(=O)N3CCN(C(=O)c4cc(Cc5n[nH]c(=O)c6c5CCCC6)ccc4F)CC3)ccc21` [Example 728, 4-[4-fluoro-3-({4-[(1-isopropyl-1H-1,2,3-benzotriazol-5-yl)carbonyl]piperazin-1-yl}carbonyl)benzyl]-5,6,7,8-tetrahydrophthalazin-1(2H)-one]: 1.8 nM; for `O=C(NC1CCN(C(=O)[C@@H]2CSCN2)CC1)c1cc(Cc2n[nH]c(=O)c3c2NCCC3)ccc1F` [Example 729, 2-fluoro-5-[(5-oxo-1,2,3,4,5,6-hexahydropyrido[2,3-d]pyridazin-8-yl)methyl]-N-{1-[(4R)-1,3-thiazolidin-4-ylcarbonyl]piperidin-4-yl}benzamide]: 48 nM; for `O=C(c1ccccn1)N1CCN(C(=O)c2cc(Cc3n[nH]c(=O)c4c3CCCC4)ccc2F)CC1` [Example 730, 4-(4-fluoro-3-{[4-(pyridin-2-ylcarbonyl)piperazin-1-yl]carbonyl}benzyl)-5,6,7,8-tetrahydrophthalazin-1(2H)-one]: 1.3 nM. For `O=C(NC1CCN(C(=O)c2cscn2)CC1)c1cc(Cc2n[nH]c(=O)c3c2NCCC3)ccc1F` [Example 731, 2-fluoro-5-[(5-oxo-1,2,3,4,5,6-hexahydropyrido[2,3-d]pyridazin-8-yl)methyl]-N-[1-(1,3-thiazol-4-ylcarbonyl)piperidin-4-yl]benzamide], the inhibitory constant (Ki) stood at 11 nM.
